Results on two compounds are retold here after PMC9838834, “Improvement of Antialveolar echinococcosis efficacy of novel Albendazole-Bile acids Derivatives with Enhanced Oral Bioavailability” (PLOS Neglected Tropical Diseases, 2023).

Data set [1] concerns protoscolex (PSCs). Description: Protoscolex microstructure by optical microscope and SEM. Particulars: 5 days after treatment, 10 μg/mL. It is filed as cell-based, E. multilocularis. The source says:
(§1) Protoscoleces (PSCs) from E. multilocularis were collected aseptically from alveolar echinococcosis obtained from the abdominal cavity of gerbils in Qinghai Research Key Laboratory for Echinococcosis, China. The specific operation steps were as follows: (1) dissect the successfully preserved Echinococcus protoscoleces gerbil model, isolate cysts and wash the residual liver tissue and blood with sterile Penicillin-Streptomycin solution (penicillin (1500 U/ mL) + streptomycin (1000 U/ mL)). (2) Place the clean cysts in sterile glassware, cut them into a slurry, filter the original head section with sterile gauze, and rinse them with Penicillin-Streptomycin solution 3 times. (3) Slightly rotate and shake the filtrate, absorb the suspended connective tissue, impurities, inactivated PSCs, and excess Penicillin-Streptomycin solution in the upper layer, repeat several times and finally concentrate the pure PSCs into the test tube. Viability was assessed by muscular movement (evaluated under an optical microscope), the motility of flame cells, and the exclusion test with methylene blue. The PSCs were incubated in an RPMI 1640 medium containing 0.20 mg/mL liver homogenous serous, 100 U/mL penicillin, 100 μg/mL streptomycin and 10% calf serum at 37°C in a 5% CO2 atmosphere at a concentration of (1000–2000) PSCs/mL.
(§2) The PSCs were divided into blank control groups (Groups 1 and 2), positive control groups (Groups 3 and 4), and experimental groups (Groups 5 to 7). Group 1 was RPMI-1640 medium with 0.20 mg/mL liver homogenate; Group 2 was 0.2% DMSO medium with 0.2% DMSO; Group 3 was RPMI-1640 medium with 0.20 mg/mL liver homogenate and 0.2% DMSO, containing 10 μg/mL Albendazole; Group 4 was RPMI-1640 medium with 0.20 mg/mL liver homogenate and 0.2% DMSO, containing 10 μg/mL albendazole sulfoxide; Groups 5–7 were RPMI-1640 medium with 0.20 mg/mL liver homogenate and 0.2% DMSO, containing 13.45, 26.9 and 53.8 μg/mL ABZ-BA, with effective ABZ concentrations of 5, 10 and 20 μg/mL, respectively. The culture medium and drug were changed every 3 days for one week. PSCs samples (10 μL) were collected every day and stained with 0.4% trypan blue staining solution, observed under an inverted microscope, and photographed to record PSC mortality.
For ultrastructural studies, 200 μL PSCs were taken from each group 5 days after treatment and fixed with 4% glutaraldehyde in sodium cacodylate buffer at 4°C for 72 hours. Samples were dehydrated by continuous incubation in increasing concentrations of ethanol (50–100%), and ethanol was removed by supercritical extraction. They were then sputter-coated with gold (100 Å thick) and examined on an FEI Quanta 200 scanning electron microscope operating at 20 kV.

In data set [2] the test system is protoscolex (PSCs). Description: Detection of protoscolex mortality / survival rate in vitro (trypan blue). Type of data set: cell-based, E. multilocularis. Particulars: 7 days; ABZ 10 μg/mL, ABZ-SO 10 μg/mL, ABZ-BA 13.45, 26.9, 53.8 μg/mL; liver homogenate + 0.2% DMSO; n = 3.
From the text: as §1, §2

Data set [3] is described as follows: Systemic pharmacokinetics in SD rats (UHPLC-MS). It is filed as in vivo, Sprague-Dawley (SD) rats. Particulars: SD rats, oral 25 mg/kg. How it is done: A Dionex Ultimate 3000 RSLC system (Thermofisher) combined with an Accucore aQ C18 column (150 mm×2.1 mm, 2.6 μm, Thermo fisher) was used in the sample separation process. The separation speed was set at […] for all gradients. 1 μL of injection volume and a constant temperature of (25 ± 1°C were set for the column. The eluents were A, water with 0.1% formic acid (v/v) and B, methanol; the gradient program was as follows: 0–6 min, 8–40% B; 6–8 min, 40–100% B; 8–10 min, 100% B; 10–11 min, 100–8% B; 11–13 min, 8% B.
Heated electro-spray ionization (HE-SI) was paired with a Q-Orbitrap MS in the MS analysis. The flow rate of auxiliary, sheath and sweep gas was set at 35, 10, and 1 (arbitrary unit), respectively. A full MS-ddMS^2 mode was used to perform the analysis. The damping gas in the C-trap and nitrogen was used to stabilize the spraying. Temperatures of 350°C and 320°C were set and kept for the auxiliary gas heater and capillary. Under negative mode, 3.0 kV was adopted for the spray voltage, 60 V was used for the S-lens RF level, 50 ms was used for the maximum injection time, and 3.0 ^e6 was set as the automatic gain control target. Full MS-ddMS^2 scan ranged from 150.0000 to 800.0000 m/z. Precise molecular weight […] was used for qualitative analysis, the corresponding peak area was used for quantitative analysis, and MS^2 fragments were used for further qualitative analysis.
A cross-over design was employed with male SD rats (n = 7) to evaluate in vivo pharmacokinetics. The rats were subjected to fasting for one night before each administration and were fed 4 hours after administration. ABZ was administered by gavage (25 mg/kg). Blood was collected under isoflurane anesthesia at a flow rate of 2.0 mL/min. At 0.25, 0.5, 1, 2, 2.5, 3, 4, 6, 8, 12, and 24 hours after administration, 200–500 μL blood was collected from the orbital venous plexus and centrifuged at 13000 rpm for 5 min. The upper plasma was stored at—80°C for testing.
Plasma samples were thawed at room temperature, and 100 μL was added to an equal volume of mass spectrometry grade methanol, vortexed for 1 min, and centrifuged again at 13000 rpm for 5 min. 100 μL of the supernatant were added to 100 μL of 200 ng/mL mebendazole IS solution, vortexed for 1 min, and centrifuged again at 13000 rpm for 5 min. The resulting sample was injected by UHPLC-HR-ESI-MS with an injection volume of 1 μL. The pharmacokinetic study of SD rats was performed according to the standards recommended by the "Guidelines for the Care and Use of Laboratory Animals" (Animal Laboratory Resources Institute, 1995) and was approved by the Institutional Animal Care and Use Committee of Qinghai University.

As for `CCC[S+]([O-])c1ccc2[nH]c(NC(=O)OC)nc2c1` (stereo not shown) [ABZ-SO, albendazole sulfoxide], in the data set on protoscolex (PSCs) [1], the “PSC morphology under the SEM” value is “elongated and curled up”; the “PSC morphology under the optical microscope (OM)” value was “became vacuolar and transparent”. Further, the “mortality of PSCs” value in the data set on protoscolex (PSCs) [1] (vs blank groups) is on record as “significantly higher than in the blank groups”. For the same compound, the “inhibitory effect on PSC survival rate” value with protoscolex (PSCs) [2] is “time and concentration-dependent inhibitory effects”.
As for `CCCSc1ccc2[nH]c(NC(=O)OC)nc2c1` [Abz], in data set [3], the “detection in plasma 24 hours after administration” value was “still detected” and the “shape of the drug time curve” value is “double-peak”. The “Frel (relative bioavailability) = AUCAbz(0–24)/AUCABZ (0–24)” value in data set [3] (n = 7) came to 2613%.
